Test results published in patent publication US7575882B2, “Compositions and methods for identifying modulators of TRPV2” (Janssen Pharmaceutica N. V., priority 2005, dated 2009).

Legend:
Assay type in all cases: cell-based
[1] = test system: untransfected HEK293 cells; experiment: FLIPR calcium assay in untransfected HEK293 cells (control); conditions: 100 μM
rat TRPV2 = target: T1, rat TRPV2 (Rattus norvegicus, UniProt Q9WUD2, A713V/L151P/T158I); experiment: Whole-cell patch clamp, HEK293 cells stably expressing rat TRPV2; conditions: 100 μM
T1 construct: A cDNA fragment encoding the full-length rat TRPV2 was subcloned into pCI-neo; expressed in transfected cells
T1 sequence (Q9WUD2 1-761 L151P/T158I/A713V): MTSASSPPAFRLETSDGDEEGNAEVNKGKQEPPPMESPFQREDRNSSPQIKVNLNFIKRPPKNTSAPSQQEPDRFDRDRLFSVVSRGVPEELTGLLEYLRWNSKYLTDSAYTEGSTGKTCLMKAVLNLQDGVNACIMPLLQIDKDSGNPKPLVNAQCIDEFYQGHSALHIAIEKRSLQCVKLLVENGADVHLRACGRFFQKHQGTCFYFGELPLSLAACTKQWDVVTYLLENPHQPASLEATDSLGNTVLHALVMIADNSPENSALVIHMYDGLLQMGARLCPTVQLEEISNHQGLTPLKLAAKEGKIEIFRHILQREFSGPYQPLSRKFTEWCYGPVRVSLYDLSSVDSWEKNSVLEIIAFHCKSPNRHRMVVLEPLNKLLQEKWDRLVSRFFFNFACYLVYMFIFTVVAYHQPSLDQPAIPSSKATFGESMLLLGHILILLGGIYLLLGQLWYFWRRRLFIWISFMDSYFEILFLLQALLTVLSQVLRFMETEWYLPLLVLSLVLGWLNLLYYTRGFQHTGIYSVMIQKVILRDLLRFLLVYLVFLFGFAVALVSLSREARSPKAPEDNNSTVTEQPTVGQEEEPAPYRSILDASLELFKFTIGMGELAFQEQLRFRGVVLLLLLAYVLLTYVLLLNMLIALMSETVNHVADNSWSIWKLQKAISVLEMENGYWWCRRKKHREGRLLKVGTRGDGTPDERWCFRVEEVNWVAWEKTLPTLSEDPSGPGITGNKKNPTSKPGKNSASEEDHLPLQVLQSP
Experimental: To further confirm the Δ^9-THC effect on TRPV2, whole-cell patch clamp studies were performed. The extracellular solution contained (in mM): NaCl, 132; CaCl, 1.8; KCl, 5.4; MgCl2, 0.8; HEPES, 10; glucose, 10; pH=7.4. The intracellular solution used to fill recording pipettes contained (in mM): CsCl, 145; EGTA, 5; HEPES, 10; glucose, 5; pH=7.4. Recordings were performed using the conventional whole-cell patch clamp technique, 2-3 days after transient transfection of human TRPV2 into HEK293 cell or 1-2 days after plating HEK293 cells stably expressing rat TRPV2 onto glass coverslips. Currents were amplified by a patch clamp amplifier and filtered at 2 kHz (Axopatch 200B), sampled at 10 kHz using Digidata 1322A and acquired and analyzed with pClamp 9.0 (all instruments from Molecular Devices, CA). A 600 ms voltage ramp was given once every five seconds from −100 mV to +60 mV. The holding potential between voltage ramps was −100 mV. Extracellular solutions were applied to the cell at 0.5 ml/min via a gravity-fed perfusion system. All experiments were performed at 22° C.

[2] = target: T2, rat and human TRPV2 chimera RHR (Rattus norvegicus, UniProt Q9WUD2, A398L/D418K/D570G/D595E/E431N/E493A/E569T/E577V/E585D/F395L/F429V/I422A/INS586GN/K566E/L151P/L436T/L450V/L461V/L478F/L485V/L503S/M468I/M492L/N571P/P420Q/P587G/P589Q/Q419K/R460H/R490C/R560Q/R563W/R617H/S416T/S424H/S425L/S504A/S564R/S573A/S592G/T428E/T494I/T576S/T580M/V402I/V409A/V543I/V575E/V581E/V621M/V635I/Y400N); experiment: Calcium mobilization in HEK293 cells expressing TRPV2 chimera RHR; conditions: transient expression in HEK293
T2 construct: expressed in transfected cells; host or cells: HEK293, transient, pCI-neo
Experimental: The deletion mutant constructs were then transfected into HEK293 cells using Fugene 6 reagent (Roche) as per the manufacturer's instructions. At 24 hours post-transfection, the cells were harvested and replated in fresh DMEM medium supplemented with 10% fetal bovine serum, 100 units/ml penicillin, and 100 μg/ml streptomycin. The cells were distributed onto poly-D-Lysine coated 96-or 384-well plates at a density of approximately 40,000 and 10,000 cells per well, respectively. At approximately 48 hours post-transfection, the medium was removed from the assay plate and replaced with Calcium 3 Dye Buffer (Molecular Devices) using the protocol available from the manufacturer. Calcium mobilization was triggered using Δ^9-THC or 2-APB or elevated temperature buffer and measured using either FLIPR or FLEX STATION instruments.
Based on the predicted topology and primary sequence features of TRPV2, TRPV2 are divided into 3 major domains: 1) the amino-terminal intracellular domain; 2) the transmembrane domain; and 3) the carboxyl-terminal intracellular domain. For a chimera, each domain can be of rat (R) or human (H) origin. Three rat and human TRPV2 chimera were constructed and tested herein. RRH (SEQ ID NO:15) was a chimera comprising rat 1-392 aa, rat 393-646 aa, and human 647-764 aa. RHR (SEQ ID NO:16) was a chimera comprising rat 1-392, human 391-646, and rat 647-761. HRR (SEQ ID NO:17) was a chimera comprising human 1-390, rat 393-646, and rat 647-761.
DNA molecules encoding the three rat and human TRPV2 chimeras were obtained by fusion PCR. First, DNA molecules encoding the desired TRPV2 domains were amplified by PCR using the rat or human TRPV2 cDNA as the template with synthetic primer DNA containing in-frame sequence that overlapped with the other species domain to be linked. After PCR amplification and purification, DNA molecules encoding the desired TRPV2 domains from human and rat were combined and used as templates for fusion PCR with primer DNA matching the 5′ and 3′ end sequences of the coding sequence for the full length TRPV2 chimera. […]

T2 sequence (Q9WUD2 other isoform, or with tags, fused parts or gaps with the stated changes): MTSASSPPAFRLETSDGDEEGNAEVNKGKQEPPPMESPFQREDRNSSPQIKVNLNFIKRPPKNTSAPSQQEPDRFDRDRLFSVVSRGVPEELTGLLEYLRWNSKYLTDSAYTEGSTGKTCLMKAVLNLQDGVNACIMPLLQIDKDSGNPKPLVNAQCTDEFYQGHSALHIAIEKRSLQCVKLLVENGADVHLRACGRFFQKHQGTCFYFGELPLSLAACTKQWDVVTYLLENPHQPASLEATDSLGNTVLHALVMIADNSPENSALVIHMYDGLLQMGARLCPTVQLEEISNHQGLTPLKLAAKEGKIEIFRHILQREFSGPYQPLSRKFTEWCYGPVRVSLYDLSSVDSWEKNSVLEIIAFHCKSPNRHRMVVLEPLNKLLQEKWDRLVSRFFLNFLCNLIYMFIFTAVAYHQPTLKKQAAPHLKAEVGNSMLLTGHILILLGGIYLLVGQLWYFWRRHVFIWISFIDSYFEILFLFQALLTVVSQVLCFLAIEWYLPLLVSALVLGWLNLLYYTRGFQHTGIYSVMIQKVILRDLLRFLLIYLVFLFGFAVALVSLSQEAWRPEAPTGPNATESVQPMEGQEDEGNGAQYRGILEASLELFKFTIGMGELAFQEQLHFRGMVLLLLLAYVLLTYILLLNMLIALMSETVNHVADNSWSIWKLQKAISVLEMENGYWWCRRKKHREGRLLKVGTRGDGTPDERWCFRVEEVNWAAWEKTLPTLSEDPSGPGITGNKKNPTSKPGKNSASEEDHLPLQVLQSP

Substance: Delta-9-tetrahydrocannabinol [Δ^9-THC]
- elevation of intracellular Ca2+ in untransfected HEK293 cells [1]: no significant intracellular Ca^+ elevation
- whole-cell current amplitude in HEK293 cells expressing rTRPV2 compared to control (rat TRPV2; 22° C., hyperpolarized and depolarized potentials): significant increase of the whole-cell current amplitude
- reversal potential of the activated current (rat TRPV2; whole-cell patch clamp): ~0 mV
- response of chimera RHR to the compound [2]: fully responsive
- response of chimera RHR to the compound ([2]; listed as Δ9-THC): active
